# Where two headings read alike, the source gives them in different places. Where a SMILES comes first, the peptide text is derived from it. Bridges are numbered along the chain shown (N, C = ends). [ ]: non-standard residue; d: D form. The star is where a group is joined. hPhe(3-Cl-4-CF3) = N[C@@H](CCc1ccc(C(F)(F)F)c(Cl)c1)C(=O)O; NPrPhe(4-CF3) = CCCN[C@@H](Cc1ccc(C(F)(F)F)cc1)C(=O)O; NMeGly(cPent) = CN[C@H](C(=O)O)C1CCCC1; Pro(4,4-F2) = O=C(O)[C@@H]1CC(F)(F)CN1; NMeD = CN[C@@H](CC(=O)O)C(=O)O; NMeL = CN[C@@H](CC(C)C)C(=O)O; Morpholide = C1CN(*)CCO1; Aze = O=C(O)[C@@H]1CCN1; Ac4c = NC1(C(=O)O)CCC1; NEtG = CCNCC(=O)O; Sar = CNCC(=O)O
# Key:
# [1] = target: GDP-bound KRAS wild-type protein (Homo sapiens, UniProt P01116); test: Binding to KRAS by surface plasmon resonance (SPR), Single Cycle Kinetics; conditions: GDP-bound KRAS wild-type protein, read-out: KRAS KD
# [2] = target: GDP-bound NRAS wild-type protein (Homo sapiens, UniProt P01111); test: Binding to NRAS by surface plasmon resonance (SPR), Single Cycle Kinetics; conditions: SPR, GDP-bound NRAS wild-type protein vs GDP-bound KRAS wild-type protein
# [3] = target: GDP-bound HRAS wild-type protein (Homo sapiens, UniProt P01112); test: Binding to HRAS by surface plasmon resonance (SPR), Single Cycle Kinetics; conditions: SPR, GDP-bound HRAS wild-type protein vs GDP-bound KRAS wild-type protein
# [4] = SPR, Single Cycle Kinetics, 1:1 binding model
# [5] = SPR Single Cycle Kinetics, 1:1 binding model
# Chain of GDP-bound NRAS wild-type protein (P01111 whole entry): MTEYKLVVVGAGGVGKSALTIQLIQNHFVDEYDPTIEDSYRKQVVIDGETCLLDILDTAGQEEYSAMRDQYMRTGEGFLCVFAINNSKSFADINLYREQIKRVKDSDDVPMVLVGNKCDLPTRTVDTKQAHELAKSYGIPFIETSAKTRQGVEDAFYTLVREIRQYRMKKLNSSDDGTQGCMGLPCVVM
# Chain of GDP-bound KRAS wild-type protein (P01116 whole entry): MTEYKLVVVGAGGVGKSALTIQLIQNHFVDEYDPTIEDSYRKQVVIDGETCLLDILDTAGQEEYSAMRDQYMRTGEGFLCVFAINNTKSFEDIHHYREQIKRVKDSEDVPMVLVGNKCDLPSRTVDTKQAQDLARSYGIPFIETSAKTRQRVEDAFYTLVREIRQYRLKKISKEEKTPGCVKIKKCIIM
# Chain of GDP-bound HRAS wild-type protein (P01112 whole entry): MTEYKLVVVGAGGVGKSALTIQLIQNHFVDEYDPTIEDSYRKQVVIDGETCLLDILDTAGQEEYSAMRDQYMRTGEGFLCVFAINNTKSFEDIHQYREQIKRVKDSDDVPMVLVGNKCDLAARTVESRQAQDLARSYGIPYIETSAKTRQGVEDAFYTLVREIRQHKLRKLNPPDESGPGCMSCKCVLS
smiles,measurement,setting,value
CCO[C@@H]1C[C@H]2C(=O)NC3(CCC3)C(=O)N(C)[C@@H](C3CCCC3)C(=O)N(C)[C@H](C(=O)N3CCOCC3)CC(=O)N(C)[C@@H](CC)C(=O)N[C@@H]([C@@H](C)CC)C(=O)N(C)CC(=O)N(C)[C@H]3CC/C=C(/C)CN(C3=O)[C@@H](Cc3ccc(C(F)(F)F)cc3)C(=O)N(C)CC(=O)N[C@@H](CCc3cc(F)c(C(F)(F)F)c(F)c3)C(=O)N2C1 [PP1335],Kd,[1]; [4],18 nM
same,NRAS/KRAS (ratio of KD value for NRAS to KD value for KRAS),[2]; KD ratio class,B (a compound having 3 or more and less than 10 is denoted as B)
same,HRAS/KRAS (ratio of KD value for HRAS to KD value for KRAS),[3]; KD ratio class,B (a compound having 3 or more and less than 10 is denoted as B)
CCO[C@@H]1C[C@H]2C(=O)NC3(CC(C)(C)C3)C(=O)N(C)[C@@H](C3CCCC3)C(=O)N(C)[C@H](C(=O)N(C)C)CC(=O)N(C)[C@@H](CC3CC3)C(=O)N[C@@H]([C@@H](C)CC)C(=O)N(C)CC(=O)N(C)[C@H]3C/C=C\CCN(C3=O)[C@@H](Cc3ccc(C(F)(F)F)cc3)C(=O)N(C)CC(=O)N[C@@H](CCc3ccc(C(F)(F)F)c(OC)c3)C(=O)N2C1 [PP1563],Kd,[1]; [4],0.048 nM
same,NRAS/KRAS (ratio of KD value for NRAS to KD value for KRAS),[2]; KD ratio class,A (a compound having 10 or more and less than 20 is denoted as A)
same,HRAS/KRAS (ratio of KD value for HRAS to KD value for KRAS),[3]; KD ratio class,A (a compound having 10 or more and less than 20 is denoted as A)
CCC[C@H]1C(=O)N[C@@H]([C@@H](C)CC)C(=O)N(C2CC2)CC(=O)N(C)[C@H]2C/C=C\CCN(C2=O)[C@@H](CC2CCC(F)(F)CC2)C(=O)N(C)CC(=O)N[C@@H](CCc2ccc(C(F)(F)F)c(OC)c2)C(=O)N2C[C@H](OCC)C[C@H]2C(=O)N(C)C2(CCC2)C(=O)N(C)[C@@H](C(CC)CC)C(=O)N(C)[C@H](C(=O)N(C)C)CC(=O)N1C [PP2349],Kd,"[1]; SPR, Single Cycle Kinetics",3.8 nM
same,NRAS/KRAS (ratio of KD value for NRAS to KD value for KRAS),[2],A (a compound having 10 or more and less than 20 is denoted as A)
same,HRAS/KRAS (ratio of KD value for HRAS to KD value for KRAS),[3],A (a compound having 10 or more and less than 20 is denoted as A)
CCCN1C(=O)[C@@H]2CCN2C(=O)CN(C)C(=O)[C@H]([C@@H](C)CC)NC(=O)[C@H](CC(C)C)N(C)C(=O)C[C@@H](C(=O)N2CCOCC2)NC(=O)[C@H](C2CCCC2)N(C)C(=O)C2(CCC2)NC(=O)[C@@H]2CCCN2C(=O)[C@H](CCc2ccc(C(F)(F)F)c(Cl)c2)NC(=O)CN(C)C(=O)[C@@H]1Cc1ccc(C(F)(F)F)cc1 [PP0350] ([NMeL]I[Sar][Aze][NPrPhe(4-CF3)][Sar][hPhe(3-Cl-4-CF3)]P[Ac4c][NMeGly(cPent)]D-Morpholide; lactam N-11),Kd,[1]; [5],1.1 nM
same,NRAS/KRAS (ratio of KD value for NRAS to KD value for KRAS),[2],C (A compound having a KD ratio of 0.1 or more and less than 3 is denoted as C)
same,HRAS/KRAS (ratio of KD value for HRAS to KD value for KRAS),[3],B (a compound having 3 or more and less than 10 is denoted as B)
"CCCN1C(=O)CN(C)C(=O)CN(CC)C(=O)[C@H]([C@@H](C)CC)NC(=O)[C@H](CC(C)C)N(C)C(=O)C[C@@H](C(=O)N(C)C)N(C)C(=O)[C@H](C2CCCC2)N(C)C(=O)C2(CCC2)NC(=O)[C@@H]2CC(F)(F)CN2C(=O)[C@H](CCc2ccc(C(F)(F)F)c(Cl)c2)NC(=O)CN(C)C(=O)[C@@H]1Cc1ccc(C(F)(F)F)cc1 [PP0426] ([NMeL]I[NEtG][Sar][NPrPhe(4-CF3)][Sar][hPhe(3-Cl-4-CF3)][Pro(4,4-F2)][Ac4c][NMeGly(cPent)][NMeD]-NMe2; lactam N-11)",Kd,[1]; [5],0.12 nM
same,NRAS/KRAS (ratio of KD value with respect to NRAS to KD value with respect to KRAS),[2],C (A compound having a KD ratio of 0.1 or more and less than 3 is denoted as C)
same,HRAS/KRAS (ratio of KD value with respect to HRAS to KD value with respect to KRAS),[3],C (A compound having a KD ratio of 0.1 or more and less than 3 is denoted as C)
"CCCN1C(=O)CN(C)C(=O)CN(C)C(=O)[C@H]([C@@H](C)CC)NC(=O)[C@H](CC(C)C)N(C)C(=O)C[C@@H](C(=O)N(C)C)N(C)C(=O)[C@H](C2CCCC2)N(C)C(=O)C2(CCC2)NC(=O)[C@@H]2CC(F)(F)CN2C(=O)[C@H](CCc2ccc(C(F)(F)F)c(Cl)c2)NC(=O)CN(C)C(=O)[C@@H]1Cc1ccc(C(F)(F)F)cc1 [PP0414] ([NMeL]I[Sar][Sar][NPrPhe(4-CF3)][Sar][hPhe(3-Cl-4-CF3)][Pro(4,4-F2)][Ac4c][NMeGly(cPent)][NMeD]-NMe2; lactam N-11)",Kd,[1]; [5],0.029 nM
same,NRAS/KRAS (ratio of KD value with respect to NRAS to KD value with respect to KRAS),[2],B (a compound having 3 or more and less than 10 is denoted as B)
same,HRAS/KRAS (ratio of KD value with respect to HRAS to KD value with respect to KRAS),[3],C (A compound having a KD ratio of 0.1 or more and less than 3 is denoted as C)
CCO[C@@H]1C[C@H]2C(=O)NC3(CCC3)C(=O)N(C)[C@@H](C3CCCC3)C(=O)N(C)[C@H](C(=O)N(C)C)CC(=O)N(C)[C@@H](COC)C(=O)N[C@@H]([C@@H](C)CC)C(=O)N(C)CC(=O)N(C)[C@H]3CCCCCN(C3=O)[C@@H](Cc3ccc(C(F)(F)F)cc3)C(=O)N(C)CC(=O)N[C@@H](CCc3cc(F)c(C(F)(F)F)c(F)c3)C(=O)N2C1 [PP0674],Kd,[1]; [5],0.16 nM
same,NRAS/KRAS (ratio of KD value with respect to NRAS to KD value with respect to KRAS),[2],B (a compound having 3 or more and less than 10 is denoted as B)
same,HRAS/KRAS (ratio of KD value with respect to HRAS to KD value with respect to KRAS),[3],B (a compound having 3 or more and less than 10 is denoted as B)
